Target: T1, Glucocorticoid receptor (Homo sapiens, UniProt P04150)
T1 sequence (P04150 whole entry): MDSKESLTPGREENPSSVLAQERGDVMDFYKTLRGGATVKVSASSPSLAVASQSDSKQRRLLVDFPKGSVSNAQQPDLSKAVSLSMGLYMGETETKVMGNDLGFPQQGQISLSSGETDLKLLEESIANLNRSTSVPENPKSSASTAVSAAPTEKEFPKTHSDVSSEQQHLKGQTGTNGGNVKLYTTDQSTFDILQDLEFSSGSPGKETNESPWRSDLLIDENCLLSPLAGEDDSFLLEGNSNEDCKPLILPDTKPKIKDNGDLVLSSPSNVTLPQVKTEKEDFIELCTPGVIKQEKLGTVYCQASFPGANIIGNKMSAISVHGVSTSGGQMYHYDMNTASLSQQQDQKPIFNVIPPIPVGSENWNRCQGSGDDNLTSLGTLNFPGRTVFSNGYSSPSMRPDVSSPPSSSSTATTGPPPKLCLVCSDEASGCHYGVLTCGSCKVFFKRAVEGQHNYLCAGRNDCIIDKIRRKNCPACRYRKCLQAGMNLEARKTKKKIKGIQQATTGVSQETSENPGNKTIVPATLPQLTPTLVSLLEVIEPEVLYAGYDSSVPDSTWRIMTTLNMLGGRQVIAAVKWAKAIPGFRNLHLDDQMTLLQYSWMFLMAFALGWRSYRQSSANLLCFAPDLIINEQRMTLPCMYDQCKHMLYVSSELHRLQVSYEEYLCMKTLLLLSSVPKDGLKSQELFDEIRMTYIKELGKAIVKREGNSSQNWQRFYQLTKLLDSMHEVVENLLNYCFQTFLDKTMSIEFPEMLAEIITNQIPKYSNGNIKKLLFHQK
Test: Binding affinity to glucocorticoid receptor by Fluorescence polarization

Row | IC50 | Compound
1 | 2 µM | COc1ccc(F)cc1C(C)(C)C[C@](O)(Cc1ccc(Cl)cc1)C(F)(F)F
2 | 0.099 µM | COc1ccc(F)cc1C(C)(C)C[C@@](O)(Cc1ccc(Cl)cc1)C(F)(F)F

From ChEMBL document CHEMBL1149439, “A concise asymmetric route for the synthesis of a novel class of glucocorticoid mimetics containing a trifluoromethyl-substituted alcohol” (Bioorg Med Chem Lett, 2006)
